Test results: ChEMBL document CHEMBL3745633, “Synthesis of the biotinylated anti-HIV compound BMMP and the target identification study” (Bioorg Med Chem Lett, 2016)
Active and inactive are the calls of the source. The calls are words filed in the database; no cut-off is given here.

Assays:
[1] = test system: Human immunodeficiency virus 1; assay: Antiviral activity against HIV-1 NL4-3 infected in human M8166 cells assessed as inhibition of viral replication at 20 uM after 5 days by p24 ELISA; assay type: functional, organism-based
HEK-293T [2] = assay: Binding affinity to HIV-1 NL4-3 capsid protein expressed in HEK293T cells by surface plasmon resonance analysis; conditions: Human immunodeficiency virus 1
HEK-293T [3] = assay: Binding affinity to HIV-1 NL4-3 Pr55Gag expressed in HEK293T cells by surface plasmon resonance analysis; conditions: Human immunodeficiency virus 1

SMILES | inhibition [1] | Activity (HEK-293T [2]) | Activity (HEK-293T [3])
Cc1ccnc(SCc2nc3ccccc3s2)n1 | Active |  | 
O=C(CCCC[C@@H]1SC[C@@H]2NC(=O)N[C@@H]21)NCCCCCCc1ccnc(SCc2nc3ccccc3s2)n1 | Active | inactive | inactive
NCCCCCCc1ccnc(SCc2nc3ccccc3s2)n1 | Active |  | 
COC(=O)CCCC[C@@H]1SC[C@@H]2NC(=O)N[C@@H]21 | inactive |  | 
